# Experimental data published in PMC7247319, “The mitochondria-targeted peptide SS-31 binds lipid bilayers and modulates surface electrostatics as a key component of its mechanism of action” (The Journal of Biological Chemistry, 2020).
# Where a SMILES comes first, the peptide text is derived from it. [ ]: non-standard residue; d: D form. Dmt = Cc1cc(O)cc(C)c1C[C@H](N)C(=O)O
# Test system: isolated mitochondria
# Assay: Respirometry (oxygen consumption) of mitochondria under calcium stress
# Design: species or system S. cerevisiae
# Details: mitochondria 1 mg ml^−1, SS-31 54.4 μM, CaCl2 1 mM, preincubated on ice 20 min; n = 10–12
# Experimental: Figure 7. SS peptide effects on Ca^2+-membrane interactions and mitochondrial cation stress. A, profiles of surface potential decay (top) and ion distribution (bottom) based on GCS theory in the presence or absence of SS-31 (see supporting Results H for model description). B, effect of SS peptides on Ca^2+ accumulation at model membrane interfaces. Time course measurements of CG-5N emission were performed in solutions with LUVs (20 mol % TOCL in host POPC background, [lipid]^eff = 100 μM) prebound with SS peptide at the indicated concentration followed by titration of CaCl2 in increments of 1 nmol at 20-s intervals starting at t = 60 s. C and D, effect of SS peptides on mitochondrial Ca^2+ uptake. […] Spectral deconvolution yielded the indicated components (see Fig. S19, A and B), which were used to quantify the area ratios of L2/iso in F (values shown are means ± S.D. (error bars) (n = 3). G, respirometry analysis. Mitochondria (1 mg ml^−1) were treated in the absence or presence of SS-31 (54.4 μM) or CaCl2 (1 mM) as indicated and measured for state 2 respiration (n = 10–12 each).
# Finally, we measured the effects of SS peptides on mitochondrial calcium stress that may occur independently of Ca^2+ uptake into the matrix. […] To corroborate these findings, we measured mitochondrial oxygen consumption rates under similar conditions of SS peptide treatment and calcium stress. […]
compound,measurement,value
"Cc1cc(O)cc(C)c1C[C@H](NC(=O)[C@H](N)CCCNC(=N)N)C(=O)N[C@@H](CCCCN)C(=O)N[C@@H](Cc1ccccc1)C(N)=O [SS-31, D-Arg-2′6′-dimethyl-Tyr-Lys-Phe-NH2] (H-[dR][Dmt]KF-NH2)",effect on calcium-induced increase in basal (state 2) respiration,prevented
